The values that follow come from ChEMBL document CHEMBL1139151, “Minor groove binder antibody conjugates employing a water soluble beta-glucuronide linker” (Bioorg Med Chem Lett, 2007).

Holding throughout (type): functional, cell-based
One experiment deals with L-428. Nature of the experiment: Cytotoxicity against CD30 positive and CD70 negative L428 cells assessed as cell viability after 96 hrs. Conditions: Homo sapiens, L-428, 96 h.
A short description of experiment [1]: Cytotoxicity against CD30 positive L540 Cy cells assessed as cell viability after 96 hrs. The note with it: Homo sapiens, L540cy.
Another experiment relates to CAKI-1. Nature of the experiment: Cytotoxicity against CD70 positive Caki1 cells assessed as cell viability after 96 hrs. Conditions: Homo sapiens, CAKI-1, 96 h.
Experiment [2] in a line: Cytotoxicity against CD30 positive Karpas 299 cells assessed as cell viability after 96 hrs. Conditions: Homo sapiens, KARPAS-299, 96 h.

Structures are written as SMILES.

As a reminder, the IC50 is the concentration at which inhibition is half-maximal. `COc1ccc(/C=C/C(=O)N2CC(CCl)c3c2cc(N)c2ccccc32)cc1` (centres undefined): the IC50 in the experiment with L-428 stood at 0.1 nM; in experiment [1] it was 0.5 nM; with CAKI-1 it was 0.7 nM; in experiment [2], 1.2 nM.
